{"source": "patent USRE39682E1", "about": "“Farnesyl derivatives and pharmaceutical compositions containing them” (Ramot at Tel Aviv University Ltd., priority 1993, dated 2007)", "key": {"Bulb-C mice": {"system": "Bulb-C mice", "assay": "in vivo", "procedure": "(§1) Seven groups of five mice were used. The mice received a single i.p. dose of FTS in DMSO or the solvent only. Doses used in this experiment ranged from 0.5 mg/kg to 268 mg/kg."}, "in vivo": {"assay": "in vivo", "conditions": "Bulb-C, mouse, in vivo, ip", "procedure": "as §1"}, "HEC1A cells": {"system": "HEC1A cells", "assay": "Transformed phenotype (multi-layered clumps) of HEC1A cells", "format": "cell-based, human", "description": "HEC1A cells also grow in multi-layered clumps (FIG. 10A)."}}}
{"compound": "CC(C)=CCC/C(C)=C/CC/C(C)=C/CSc1ccccc1C(=O)O", "note": "[FTS, (3,7,11-trimethyl-dodeca-2,6,10-trienyl)-2-thiobenzoic acid]", "values": [{"measurement": "Number of live mice (3 weeks following injection)", "setting": "Bulb-C mice; 0.5 mg/kg single i.p.", "value": "5/5"}, {"measurement": "Number of live mice (3 weeks following injection)", "setting": "Bulb-C mice; 5.0 mg/kg single i.p.", "value": "5/5"}, {"measurement": "Number of live mice (3 weeks following injection)", "setting": "Bulb-C mice; 10.0 mg/kg single i.p.", "value": "5/5"}, {"measurement": "survival", "setting": "Bulb-C mice; 50 mg/kg or lower single i.p.", "value": "all mice survived"}, {"measurement": "Number of live mice (3 weeks following injection)", "setting": "Bulb-C mice; 50.0 mg/kg single i.p.", "value": "5/5"}, {"measurement": "mice out of 5 died", "setting": "Bulb-C mice; 134 mg/kg single i.p.", "value": 2}, {"measurement": "Number of live mice (3 weeks following injection)", "setting": "Bulb-C mice; 134.0 mg/kg single i.p.", "value": "3/5"}, {"measurement": "Number of live mice (3 weeks following injection)", "setting": "Bulb-C mice; 268.0 mg/kg single i.p.", "value": "0/5"}, {"measurement": "mortality", "setting": "Bulb-C mice; highest dose (268 mg/kg) single i.p.", "value": "all mice died"}, {"measurement": "LD50 at 3 weeks", "setting": "in vivo", "value": "> 100", "unit": "mg/kg"}, {"measurement": "effect on multi-layered clumps formation", "setting": "HEC1A cells; 10 μM, FIG. 10B", "value": "significant reversal of the multi-layered clumps formation"}, {"measurement": "effect on multi-layered clumps formation", "setting": "HEC1A cells; 50 μM, FIG. 10C", "value": "significant reversal of the multi-layered clumps formation"}]}
